Article PMC11079024, “Identification of a family of species-selective complex I inhibitors as potential anthelmintics” (Nature Communications, 2024)
Where “and” joins values, the source holds several entries; their conditions need not be identical. Equal values may be shown once. Read-outs that look alike come from different tables or passages of the source.

Target: M. musculus (heart) complex I (Mus musculus, UniProt P03888+Q91WD5+Q9DC70)
Assay: biochemical
Type: biochemical
Set-up: Complex I activity, dose-response data: unit not given here
Details: for IC50: heart mitochondria
Protocol: Six 8–10-week-old C57Bl/6 female mice (Charles River) were freshly dissected, and their livers and hearts collected into separate 1.5 mL microcentrifuge tubes. Organs were flash-frozen in liquid nitrogen and stored at −80 °C prior to use. The heart of a freshly slaughtered adult cow was obtained from a local abattoir (Peel Sausage Inc.), chopped into ~1-inch cubes and collected into 50 mL falcon tubes. Falcon tubes were flash-frozen in a container of dry ice and stored at −80 °C prior to use. Isolation of mitochondria from all mammalian tissue was carried out following the protocol described above. However, due to size, the initial homogenization of tissue was performed by 15 strokes in a dounce homogenizer (mouse heart) or with several 5 s pulses in small Nutribullet blender (cow heart). All mouse protocols for mouse care and dissection were reviewed and approved by the University of Toronto Animal Care Committee, in accordance with the Canadian Council on Animal Care.
The enzymatic activities of individual ETC complexes (I-IV) were assessed spectrophotometrically in isolated mitochondria using a Varioskan LUX Multimode plate reader (ThermoFisher Scientific). Mitochondrial pellets previously isolated were thawed on ice and resuspended in ice-cold isolation buffer (250 mM sucrose, 10 mM Tris (pH 7.5), 1 mM EDTA). The BCA assay (Walker, 1994) was used to quantify the protein concentration of mitochondria suspensions; solutions were diluted to a concentration of 0.2 mg/mL for use in all assays. For the complex I assay, mitochondria pellets were freeze-thawed on ice three times to increase enzyme accessibility. […] 20 μL mitochondria suspension was then added/mixed with a pipette to initiate the reaction. Immediately following the addition of mitochondria, absorbance was measured (complex I and II: 600 nm; complex III and IV: 550 nm) in 30 s intervals over 15 min. Enzymatic activity was determined in each reaction by plotting absorbance versus time and calculating the slope of the curve during the initial linear phase of the reaction. […] Percent activity of each complex was calculated by dividing the enzyme-specific activity of each well by the enzyme-specific activity of the corresponding solvent controls.
Chemical solutions were prepared in complex I assay buffer composed of 25 mM KPi buffer (pH 7.5), 3 mg/mL bovine serum albumin (BSA), 80 μM NADH, 60 μM decylubiquinone, 160 μM DCIP, 2 μM antimycin A and 2 mM KCN.
For preliminary screens of hit compounds, compounds were screened at 100 μM; data are the average of at least three biological replicates. The complex I and II activity assays were used for additional dose-response experiments. […] For dose responses of benzimidazole analogs, data represent the average of two biological replicates. For all other dose-responses, data represent the average of at least three biological replicates.

[1] = M. musculus (heart) mitochondria, mean of replicates, read-out: percent (%) in vitro complex I activity relative to solvent control
[2] = M. musculus (heart) mitochondria, single replicate, read-out: percent (%) in vitro complex I activity relative to solvent control

M. musculus (heart) complex I, sequence (Q91WD5 34-463): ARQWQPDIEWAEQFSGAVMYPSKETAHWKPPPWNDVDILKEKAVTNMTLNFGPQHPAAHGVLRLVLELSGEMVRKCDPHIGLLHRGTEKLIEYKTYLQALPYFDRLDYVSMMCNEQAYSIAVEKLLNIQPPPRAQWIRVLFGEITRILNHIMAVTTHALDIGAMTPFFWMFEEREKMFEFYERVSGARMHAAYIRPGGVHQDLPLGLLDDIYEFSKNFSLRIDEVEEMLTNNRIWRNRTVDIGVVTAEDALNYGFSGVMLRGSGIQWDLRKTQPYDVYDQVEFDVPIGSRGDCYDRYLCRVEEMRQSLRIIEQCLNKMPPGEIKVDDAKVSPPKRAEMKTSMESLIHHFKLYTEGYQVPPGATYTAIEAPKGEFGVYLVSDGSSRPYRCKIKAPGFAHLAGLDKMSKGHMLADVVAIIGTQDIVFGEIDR
M. musculus (heart) complex I, sequence (Q9DC70 36-224): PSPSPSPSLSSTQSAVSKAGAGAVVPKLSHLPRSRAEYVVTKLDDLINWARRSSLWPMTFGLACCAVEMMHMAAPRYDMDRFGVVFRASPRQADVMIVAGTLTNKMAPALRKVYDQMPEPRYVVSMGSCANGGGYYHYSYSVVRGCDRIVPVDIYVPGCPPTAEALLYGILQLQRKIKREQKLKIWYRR
M. musculus (heart) complex I, sequence (P03888 whole entry): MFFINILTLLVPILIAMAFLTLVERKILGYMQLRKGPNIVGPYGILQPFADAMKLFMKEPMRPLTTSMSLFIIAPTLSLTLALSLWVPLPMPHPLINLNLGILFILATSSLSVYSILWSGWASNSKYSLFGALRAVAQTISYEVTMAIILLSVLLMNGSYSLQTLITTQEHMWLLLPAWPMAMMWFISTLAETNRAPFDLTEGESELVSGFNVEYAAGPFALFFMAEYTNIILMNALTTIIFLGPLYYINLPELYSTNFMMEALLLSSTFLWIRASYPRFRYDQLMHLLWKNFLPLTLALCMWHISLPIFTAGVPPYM

Question: With `COc1cc2c(cc1OC)C(C(C)c1ccc(CC(C)C)cc1)=NCC2` (stereo not drawn) [NPD10504] as the molecule, how does the activity at 0.0001 µM (M. musculus, dose 0.0001 µM, Mean of replicates, read-out: Complex I activity, dose-response data) read?
Answer: 100%

Question: What about the “Complex I activity, dose-response data” value (M. musculus, dose 0.0001 µM, individual replicates (Rep)) of the same molecule?
Answer: 98.111 and 98.124 and 101.101

Question: And the activity at 0.0001 µM (M. musculus, dose 0.0001 µM, individual replicates (Rep), read-out: Complex I activity, dose-response data)?
Answer: 104%

Question: And the activity at 0.0005 µM (M. musculus, dose 0.0005 µM, Mean of replicates, read-out: Complex I activity, dose-response data)?
Answer: 102%

Question: And the “Complex I activity, dose-response data” value (M. musculus, dose 0.0005 µM, individual replicates (Rep))?
Answer: 96.317 and 102.767 and 102.719

Question: And the activity at 0.0005 µM (M. musculus, dose 0.0005 µM, individual replicates (Rep), read-out: Complex I activity, dose-response data)?
Answer: 108%

Question: And the activity at 0.001 µM (M. musculus, dose 0.001 µM, Mean of replicates, read-out: Complex I activity, dose-response data)?
Answer: 105%

Question: What about the “Complex I activity, dose-response data” value (M. musculus, dose 0.001 µM, individual replicates (Rep)) of the same molecule?
Answer: 99.985 and 104.571 and 105.658

Question: And the activity at 0.001 µM (M. musculus, dose 0.001 µM, individual replicates (Rep), read-out: Complex I activity, dose-response data)?
Answer: 109%

Question: What about the activity at 0.0025 µM (M. musculus, dose 0.0025 µM, Mean of replicates, read-out: Complex I activity, dose-response data) of the same molecule?
Answer: 106%

Question: What about the “Complex I activity, dose-response data” value (M. musculus, dose 0.0025 µM, individual replicates (Rep)) of the same molecule?
Answer: 98.620 and 108.582 and 106.862

Question: And the activity at 0.0025 µM (M. musculus, dose 0.0025 µM, individual replicates (Rep), read-out: Complex I activity, dose-response data)?
Answer: 111%

Question: And the activity at 0.005 µM (M. musculus, dose 0.005 µM, Mean of replicates, read-out: Complex I activity, dose-response data)?
Answer: 106%

Question: And the “Complex I activity, dose-response data” value (M. musculus, dose 0.005 µM, individual replicates (Rep))?
Answer: 97.614 and 105.909 and 105.173

Question: And the activity at 0.005 µM (M. musculus, dose 0.005 µM, individual replicates (Rep), read-out: Complex I activity, dose-response data)?
Answer: 114%

Question: And the activity at 0.013 µM (M. musculus, dose 0.013 µM, Mean of replicates, read-out: Complex I activity, dose-response data)?
Answer: 106%

Question: And the “Complex I activity, dose-response data” value (M. musculus, dose 0.013 µM, individual replicates (Rep))?
Answer: 117.888 and 97.083 and 107.285 and 103.285

Question: And the activity at 0.025 µM (M. musculus, dose 0.025 µM, Mean of replicates, read-out: Complex I activity, dose-response data)?
Answer: 108%

Question: And the “Complex I activity, dose-response data” value (M. musculus, dose 0.025 µM, individual replicates (Rep))?
Answer: 106.620 and 105.888 and 103.706

Question: And the activity at 0.025 µM (M. musculus, dose 0.025 µM, individual replicates (Rep), read-out: Complex I activity, dose-response data)?
Answer: 114%

Question: And the activity at 0.063 µM (M. musculus, dose 0.063 µM, Mean of replicates, read-out: Complex I activity, dose-response data)?
Answer: 102%

Question: And the “Complex I activity, dose-response data” value (M. musculus, dose 0.063 µM, individual replicates (Rep))?
Answer: 96.239 and 106.202 and 93.573

Question: What about the activity at 0.063 µM (M. musculus, dose 0.063 µM, individual replicates (Rep), read-out: Complex I activity, dose-response data) of the same molecule?
Answer: 112%

Question: And the activity at 0.125 µM (M. musculus, dose 0.125 µM, Mean of replicates, read-out: Complex I activity, dose-response data)?
Answer: 100%

Question: And the “Complex I activity, dose-response data” value (M. musculus, dose 0.125 µM, individual replicates (Rep))?
Answer: 95.373 and 99.771 and 94.821

Question: What about the activity at 0.125 µM (M. musculus, dose 0.125 µM, individual replicates (Rep), read-out: Complex I activity, dose-response data) of the same molecule?
Answer: 110%

Question: And the activity at 0.313 µM (M. musculus, dose 0.313 µM, Mean of replicates, read-out: Complex I activity, dose-response data)?
Answer: 200%

Question: And the “Complex I activity, dose-response data” value (M. musculus, dose 0.313 µM, individual replicates (Rep))?
Answer: 195.373 and 199.771 and 194.821

Question: And the activity at 0.313 µM (M. musculus, dose 0.313 µM, individual replicates (Rep), read-out: Complex I activity, dose-response data)?
Answer: 210%

Question: And the activity at 0.625 µM (M. musculus, dose 0.625 µM, Mean of replicates, read-out: Complex I activity, dose-response data)?
Answer: 300%

Question: And the “Complex I activity, dose-response data” value (M. musculus, dose 0.625 µM, individual replicates (Rep))?
Answer: 295.373 and 299.771 and 294.821

Question: And the activity at 0.625 µM (M. musculus, dose 0.625 µM, individual replicates (Rep), read-out: Complex I activity, dose-response data)?
Answer: 310%

Question: And the activity at 1.5 µM (M. musculus, dose 1.5 µM, Mean of replicates, read-out: Complex I activity, dose-response data)?
Answer: 400%

Question: And the “Complex I activity, dose-response data” value (M. musculus, dose 1.5 µM, individual replicates (Rep))?
Answer: 395.373 and 399.771 and 394.821

Question: And the activity at 1.5 µM (M. musculus, dose 1.5 µM, individual replicates (Rep), read-out: Complex I activity, dose-response data)?
Answer: 410%

Question: What about the activity at 3 µM (M. musculus, dose 3 µM, Mean of replicates, read-out: Complex I activity, dose-response data) of the same molecule?
Answer: 75.9%

Question: What about the “Complex I activity, dose-response data” value (M. musculus, dose 3 µM, individual replicates (Rep)) of the same molecule?
Answer: 70.628 and 77.319 and 76.050

Question: What about the activity at 3 µM (M. musculus, dose 3 µM, individual replicates (Rep), read-out: Complex I activity, dose-response data) of the same molecule?
Answer: 79.7%

Question: What about the activity at 15 µM (M. musculus, dose 15 µM, Mean of replicates, read-out: Complex I activity, dose-response data) of the same molecule?
Answer: 32.6%

Question: And the “Complex I activity, dose-response data” value (M. musculus, dose 15 µM, individual replicates (Rep))?
Answer: 30.650 and 32.968 and 29.935

Question: What about the activity at 15 µM (M. musculus, dose 15 µM, individual replicates (Rep), read-out: Complex I activity, dose-response data) of the same molecule?
Answer: 37%

Question: And the activity at 37.5 µM (M. musculus, dose 37.5 µM, Mean of replicates, read-out: Complex I activity, dose-response data)?
Answer: 10.6%

Question: And the “Complex I activity, dose-response data” value (M. musculus, dose 37.5 µM, individual replicates (Rep))?
Answer: 11.252 and 10.388 and 9.191

Question: What about the activity at 37.5 µM (M. musculus, dose 37.5 µM, individual replicates (Rep), read-out: Complex I activity, dose-response data) of the same molecule?
Answer: 11.7%

Question: And the activity at 75 µM (M. musculus, dose 75 µM, Mean of replicates, read-out: Complex I activity, dose-response data)?
Answer: 3.69%

Question: What about the “Complex I activity, dose-response data” value (M. musculus, dose 75 µM, individual replicates (Rep)) of the same molecule?
Answer: 3.180 and 4.662 and 2.397

Question: And the activity at 75 µM (M. musculus, dose 75 µM, individual replicates (Rep), read-out: Complex I activity, dose-response data)?
Answer: 4.5%

Question: What about the IC50 of the same molecule?
Answer: 9.52 µM

Question: Which results are given for `COc1ccc(Cc2nccc3cc(OC)c(OC)cc23)cc1OC` [Papaverine, reference compound]?
Answer: remaining activity at 0.125 µM [1]: 92.5%; remaining activity at 0.125 µM [2]: 91.5%; remaining activity at 0.313 µM [1]: 89.9%; remaining activity at 0.313 µM [2]: 89.5%; remaining activity at 0.625 µM [1]: 89.4%; remaining activity at 0.625 µM [2]: 91.6%; remaining activity at 1.5 µM [1]: 78.4%; remaining activity at 1.5 µM [2]: 77.9%; remaining activity at 3 µM [1]: 63.1%; remaining activity at 3 µM [2]: 62.6%; remaining activity at 15 µM [1]: 14.4%; remaining activity at 15 µM [2]: 15.3%; remaining activity at 37.5 µM (37.5 µM, M. musculus (heart) mitochondria, mean of replicates, read-out: percent (%) in vitro complex I activity relative to solvent control): 4.29%; remaining activity at 75 µM (75 µM, M. musculus (heart) mitochondria, mean of replicates, read-out: percent (%) in vitro complex I activity relative to solvent control): 1.37%; IC50: 4.58 µM
